Data taken from patent publication US9987327B2, “Methods for treating myocardial infarction comprising administering sonic hedgehog” (INSERM (INSTITUT NATIONAL DE LA SANTE ET DE EA RECHERCHE …, priority 2013, dated 2018).
Entries after “also recorded” stand apart in the source; their conditions may differ.

Columns and labels:
[1] = target: T1, ATP-dependent potassium current (IKATP) (Rattus norvegicus, UniProt P70673+Q63563); test: Glibenclamide-sensitive K+ current (IKATP), voltage clamp; type: cell-based
T1 construct: endogenous in cells; host or cells: isolated adult rat ventricular cardiomyocytes
T1 sequence (P70673 whole entry): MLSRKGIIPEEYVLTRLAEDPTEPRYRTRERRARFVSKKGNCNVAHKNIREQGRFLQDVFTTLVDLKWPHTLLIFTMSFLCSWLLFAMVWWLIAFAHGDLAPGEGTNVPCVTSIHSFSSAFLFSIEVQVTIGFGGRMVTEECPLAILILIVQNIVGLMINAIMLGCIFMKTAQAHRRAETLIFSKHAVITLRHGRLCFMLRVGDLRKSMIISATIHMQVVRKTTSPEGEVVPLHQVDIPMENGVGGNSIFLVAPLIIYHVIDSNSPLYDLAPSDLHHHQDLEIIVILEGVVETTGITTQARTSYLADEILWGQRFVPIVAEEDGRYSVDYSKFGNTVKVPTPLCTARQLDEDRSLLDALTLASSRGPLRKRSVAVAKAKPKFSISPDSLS
T1 sequence (Q63563 whole entry): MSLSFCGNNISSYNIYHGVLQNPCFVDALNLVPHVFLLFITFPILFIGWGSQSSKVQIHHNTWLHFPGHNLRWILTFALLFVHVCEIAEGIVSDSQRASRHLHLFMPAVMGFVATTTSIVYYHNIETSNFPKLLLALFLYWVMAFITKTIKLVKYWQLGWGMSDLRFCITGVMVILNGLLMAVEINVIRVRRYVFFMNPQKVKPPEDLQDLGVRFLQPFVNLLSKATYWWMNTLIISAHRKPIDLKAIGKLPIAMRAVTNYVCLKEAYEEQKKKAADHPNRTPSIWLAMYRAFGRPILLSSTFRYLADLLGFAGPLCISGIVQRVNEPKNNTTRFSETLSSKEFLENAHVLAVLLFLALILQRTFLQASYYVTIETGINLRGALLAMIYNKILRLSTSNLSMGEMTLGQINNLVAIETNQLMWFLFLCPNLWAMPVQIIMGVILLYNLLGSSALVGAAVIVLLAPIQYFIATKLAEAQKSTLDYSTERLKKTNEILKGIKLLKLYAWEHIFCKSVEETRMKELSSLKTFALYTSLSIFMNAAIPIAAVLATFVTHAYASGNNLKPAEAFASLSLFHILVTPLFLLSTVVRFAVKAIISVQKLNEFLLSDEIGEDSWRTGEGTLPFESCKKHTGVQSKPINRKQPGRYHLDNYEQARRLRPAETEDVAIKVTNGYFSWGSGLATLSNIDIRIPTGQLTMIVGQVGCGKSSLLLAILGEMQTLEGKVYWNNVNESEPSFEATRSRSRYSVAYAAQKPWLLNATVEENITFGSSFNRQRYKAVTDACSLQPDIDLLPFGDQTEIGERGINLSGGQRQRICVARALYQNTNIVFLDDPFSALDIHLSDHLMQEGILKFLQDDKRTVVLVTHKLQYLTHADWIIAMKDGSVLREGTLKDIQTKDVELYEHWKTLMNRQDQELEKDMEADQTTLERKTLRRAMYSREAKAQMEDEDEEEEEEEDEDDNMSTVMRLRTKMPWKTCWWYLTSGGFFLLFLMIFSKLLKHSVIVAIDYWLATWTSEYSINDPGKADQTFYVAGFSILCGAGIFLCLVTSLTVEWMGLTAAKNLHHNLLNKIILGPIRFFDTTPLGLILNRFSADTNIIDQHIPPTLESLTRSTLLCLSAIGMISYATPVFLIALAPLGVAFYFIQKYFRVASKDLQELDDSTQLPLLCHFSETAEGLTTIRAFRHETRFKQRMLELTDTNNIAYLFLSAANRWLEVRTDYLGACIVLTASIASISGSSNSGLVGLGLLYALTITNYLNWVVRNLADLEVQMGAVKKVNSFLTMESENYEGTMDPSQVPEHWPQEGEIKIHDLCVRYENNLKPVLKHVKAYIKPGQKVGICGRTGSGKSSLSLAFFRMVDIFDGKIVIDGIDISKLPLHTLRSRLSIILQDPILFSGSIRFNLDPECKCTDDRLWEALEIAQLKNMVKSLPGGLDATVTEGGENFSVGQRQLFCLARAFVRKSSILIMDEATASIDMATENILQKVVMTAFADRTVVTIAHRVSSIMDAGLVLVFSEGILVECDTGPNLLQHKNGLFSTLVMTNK

[2] = system: rat ventricular cardiomyocytes; test: Action potential recording, whole-cell patch clamp; type: cell-based; conditions: for effect on APD reduction induced by N-Shh: glibenclamide 1 μM acute, L-NNA, ODQ
Experimental: Whole-cell patch-clamp experiments were performed at room temperature (22-24° C.) with an Axopatch 200B (Axon instrument, Burlingham, Calif., USA). Patch pipettes had resistance of 2 MΩ. Currents were normalized to the cell membrane capacitance (pA/pF). Series resistances were compensated before recordings.
To record APs, pipettes solution contained (in mM): KCl (130), HEPES (25), ATP(Mg) (3), GTP(Na) (0.4), EGTA (0.5); pH 7.2 (KOH). Bathing solution contained (in mmol/L): NaCl (135), MgCl2 (1), KCl (4), Glucose (11), HEPES (2), CaCl2 (1.8); pH 7.4 (NaOH). APs were elicited by 0.2 ms current injection of supra-threshold intensity. During experiments, cells were stimulated by trains of 30 stimuli at 0.5 Hz.

[3] = system: rat ventricular cardiomyocytes; test: Ca2+ transient and cell shortening (sarcomere length, indo-1) under field stimulation; type: cell-based; conditions: co-incubation; for effect on reduction of cell shortening and Ca2+ transient amplitude induced by N-Shh: Ccl 30 μM, LY 25 μM, L-NNA 100 μM
[4] = system: rat ventricular cardiomyocytes; test: Nitric oxide (NO) measurement, DAF fluorescence in cardiomyocytes; type: cell-based
[5] = system: rat model of ischemia reperfusion; test: ECG (QTc, ventricular arrhythmias) after 30 min ischemia and 24 h reperfusion; type: in vivo
Experimental: (§1) Rats were implanted with DSI PhysioTel™ Transmitter (CTA-F40, Data Sciences International, Saint-Paul, Minn., USA), fifteen days before starting experiments. After recovery, ECGs were recorded by using a signal transmitter-receiver (RPC-1; DSI) connected to a data acquisition system (IOX2; EMKA Technologies). The data were collected continuously at a sampling rate of 1,000 Hz. Thus, ECGs were recorded in rats before and 6 hours after i.v. injection of Shh, Shh and hexamethonium, MPs, Shh and cyclopamine, Shh and glibenclamide. ECGs were also monitored 24 h before ischemia, during ischemia and 24 h after reperfusion. Continuous digital recordings were analyzed offline by using the software ECG-auto (ver 1.5.12.22, EMKA Technologies). ECG signals were digitally filtered between 0.1 and 1,000 Hz. The heart rate and QT interval were measured. The QT interval was defined as the time between the first deviation from an isoelectric PR interval until the return of the ventricular repolarisation to the isoelectric TP baseline from lead II ECGs. […]
The rats were subjected to 30 min ischemia followed by reperfusion. The reperfusion injuries were histologically evaluated at 24 h after reperfusion by measuring the infarcted area relative to the area at risk (FIG. 9). […]

rats = test: Telemetric ECG, QTc interval before and 6 hours after i.v. injection; type: in vivo, rat; conditions: given with Shh
Experimental: as §1, with “ECGs. The QT interval is dependent on the heart rate, therefore, QT interval should be corrected to take into account potential changes in RR interval. The QT correction was performed according to the Bazett's: formula:” for “ECGs.”
where QTB is the QT interval corrected for heart rate, and RR is the interval from the onset of one QRS complex to the onset of the next QRS complex.

[6] = system: rat model of ischemia reperfusion; test: Left ventricular fibrosis, Masson trichrome histology 24 h after reperfusion; type: in vivo
Experimental: Thin sections (5 μm) were prepared from the rat left ventricles and stained with Haematoxylin-Eosin (HE) and Masson trichrome (MT) for light microscopy (10×). The thickening of the myocardium was estimated on the HE-stained heart sections, and the presence of collagen was analyzed on the MT-stained ventricle sections.

[7] = system: rat model of ischemia reperfusion; test: Infarct size (infarcted area relative to area at risk) 24 h after reperfusion; type: in vivo; conditions: cyclopamine with N-Shh
Experimental: The rats were subjected to 30 min ischemia followed by reperfusion. The reperfusion injuries were histologically evaluated at 24 h after reperfusion by measuring the infarcted area relative to the area at risk (FIG. 9). Fifteen minutes prior to reperfusion, one group of rats received intravenous (iv) injection of the recombinant Shh homolog ligand (N-ShhH, 25 μg·kg^−1), the second group received N-Shh and the Shh receptor (patch/smoothened) antagonist cyclopamine (N-Shh+Ccl, 30 μmol/L) and the third one the vehicle (control). […] Considering that the cardio-protective effects are observed within a short time after reperfusion (i.e. <24 h), it is unlikely that they are mediated by a neoangiogenesis and/or mobilization of progenitor cells (Kusano K F, Pola R, Murayama T, Curry C, Kawamoto A, Iwakura A, Shintani S, Ii M, Asai J, Tkebuchava T, Thorne T, Takenaka H, Aikawa R, Goukassian D, von Samson P, Hamada H, Yoon Y S, Silver M, Eaton E, Ma H, Heyd L, Kearney M, Munger W, Porter J A, Kishore R and Losordo D W. Sonic hedgehog myocardial gene therapy: tissue repair through transient reconstitution of embryonic signaling. Nat Med. 2005; 11:1197-204. […]

| SMILES | effect on IKATP elicited by N-Shh [1] | effect on APD reduction induced by N-Shh [2] | effect on reduction of cell shortening and Ca2+ transient amplitude induced by N-Shh [3] | effect on the reduction in QTc interval after Shh injection (rats) | further results |
| --- | --- | --- | --- | --- | --- |
| N=C(NCCC[C@H](N)C(=O)O)N[N+](=O)[O-] [L-NNA, N^ω-nitro-L-arginine] | blocked | blunted | fully abolished |  | effect on N-Shh-induced NO production ([4]; co-incubation with N-Shh, L-NNA 100 μM, LY 25 μM): prevented |
| O=c1onc2cnc3ccccc3n12 [ODQ, 1H-[1.2.4]oxadiazolo[4.3-a]quinoxalin-1-one] | blocked | blunted |  |  |  |
| CC1=C2C[C@H]3[C@@H](CC=C4C[C@@H](O)CC[C@@]43C)[C@@H]2CC[C@]12O[C@@H]1C[C@H](C)CN[C@H]1[C@H]2C [cyclopamine] |  |  | fully abolished | prevented | effect on N-Shh prevention of QTc enlargement ([5]; cyclopamine injected in addition to N-Shh): No beneficial effect; also recorded: abolished; effect on Shh reduction of ventricular arrhythmic events ([5]; cyclopamine with N-Shh): abolished; effect on reduction of cell shortening and Ca2+ transient induced by shed membrane MPs ([3]; cyclopamine 30 μM): blocked; NO production (DAF fluorescence) vs control ([4]; cardiomyocytes incubated 4 h): no effect; effect on NO production induced by Shh-harboring MPs ([4]; pre-/co-incubation, cyclopamine 30 μM): prevented; effect on Shh prevention of fibrosis [6]: abolished; effect on cardioprotective (infarct-reducing) effect of N-Shh [7]: fully abolished; also recorded: fully prevented |
| COc1ccc(Cl)cc1C(=O)NCCc1ccc(S(=O)(=O)NC(=O)NC2CCCCC2)cc1 [glibenclamide] |  | prevented |  | prevented | effect on APD in the absence of N-Shh treatment ([2]; acute application): no effect |
| C[N+](C)(C)CCCCCC[N+](C)(C)C [hexamethonium] |  |  |  | identical |  |
